This passage reports -log(RatioIC50) results from ChEMBL document CHEMBL1154700, “3D-QSAR studies on unsaturated 4-azasteroids as human 5alpha-reductase inhibitors: a self organizing molecular field analysis approach” (Eur J Med Chem, 2010).

SMILES strings stand for the structures.

The assay is filed under the species Homo sapiens. Description: Inhibition of human 5 alpha reductase assessed as -log of ratio of IC50 of drug to the IC50 of reference compound.
As to `CN1C(=O)C=C[C@]2(C)[C@H]3CC[C@]4(C)[C@@H](C(=O)c5ccc[nH]5)CC[C@H]4[C@@H]3CC[C@@H]12`, the -log(RatioIC50) is -1.52.

In the case of `C[C@]12C=CC(=O)N[C@@H]1CC[C@@H]1[C@@H]2CC[C@]2(C)[C@@H](C(=O)c3ccc[nH]3)CC[C@@H]12`, the -log(RatioIC50) is -1.

In the case of `CC(C)N(C(=O)[C@H]1CC[C@H]2[C@@H]3CC=C4N(C)C(=O)CC[C@]4(C)[C@H]3CC[C@]12C)C(C)C`, the -log(RatioIC50) was -0.204.

With `CCC(C)C(=O)[C@H]1CC[C@H]2[C@@H]3CC[C@H]4N(C)C(=O)C=C[C@]4(C)[C@H]3CC[C@]12C` (stereo partly specified), the -log(RatioIC50) is -1.7.

On to `CC(C)N(C(=O)[C@H]1CC[C@H]2[C@@H]3CC=C4NC(=O)CC[C@]4(C)[C@H]3CC[C@]12C)C(C)C`, for which the -log(RatioIC50) is -0.602.

`CNC(=O)[C@H]1CC[C@H]2[C@@H]3CC=C4N(C)C(=O)CC[C@]4(C)[C@H]3CC[C@]12C`: the -log(RatioIC50) is -1.57.

`CCN(CC)C(=O)[C@H]1CC[C@H]2[C@@H]3CC[C@H]4N(C)C(=O)C=C[C@]4(C)[C@H]3CC[C@]12C`: the -log(RatioIC50) is -1.34.

For `CCC(C)C(=O)[C@H]1CC[C@H]2[C@@H]3CC[C@H]4NC(=O)C=C[C@]4(C)[C@H]3CC[C@]12C` (stereo partly specified), the -log(RatioIC50) was -0.881.

As for `CCNC(=O)[C@H]1CC[C@H]2[C@@H]3CC[C@H]4NC(=O)C=C[C@]4(C)[C@H]3CC[C@]12C`, the -log(RatioIC50) was -1.18.

As to `C[C@]12C=CC(=O)N[C@@H]1CC[C@@H]1[C@@H]2CC[C@]2(C)[C@@H](C(=O)Sc3ccccn3)CC[C@@H]12`, the -log(RatioIC50) came to 0.

On to `C[C@]12C=CC(=O)N[C@@H]1CC[C@@H]1[C@@H]2CC[C@@]2(C)[C@H]1CC[C@@]21CCCO1`, for which the -log(RatioIC50) was -3.

Regarding `CC(C)N(C(=O)[C@H]1CC[C@H]2[C@@H]3CC=C4N(C)C(=O)C=C[C@]4(C)[C@H]3CC[C@]12C)C(C)C`, the -log(RatioIC50) is -1.43.

For `CC(C)N(C(=O)[C@H]1CC[C@H]2[C@@H]3CC[C@H]4NC(=O)C=C[C@]4(C)[C@H]3CC[C@]12C)C(C)C`, the -log(RatioIC50) was -0.204.

Take `COC(=O)[C@@H](C)[C@H]1CC[C@H]2[C@@H]3CC[C@H]4N(C)C(=O)C=C[C@]4(C)[C@H]3CC[C@]12C`: the -log(RatioIC50) was -2.18.

With `CCNC(=O)[C@H]1CC[C@H]2[C@@H]3CC[C@H]4N(C)C(=O)C=C[C@]4(C)[C@H]3CC[C@]12C`, the -log(RatioIC50) was -2.18.

In the case of `CCOC(=O)/C=C1\CC[C@H]2[C@@H]3CC=C4N(C)C(=O)CC[C@]4(C)[C@H]3CC[C@]12C`, the -log(RatioIC50) was -2.

With `CC(C)(C)CC(C)(C)NC(=O)[C@H]1CC[C@H]2[C@@H]3CC[C@H]4NC(=O)C=C[C@]4(C)[C@H]3CC[C@]12C`, the -log(RatioIC50) is -0.079.

As to `COC(=O)[C@@H](C)[C@H]1CC[C@H]2[C@@H]3CC[C@H]4NC(=O)C=C[C@]4(C)[C@H]3CC[C@]12C`, the -log(RatioIC50) is -1.48.

Take `CCN(CC)C(=O)[C@H]1CC[C@H]2[C@@H]3CC[C@H]4NC(=O)C=C[C@]4(C)[C@H]3CC[C@]12C`: the -log(RatioIC50) was -0.785.

On to `CCN(CC)C(=O)[C@H]1CC[C@H]2[C@@H]3CC=C4N(C)C(=O)CC[C@]4(C)[C@H]3CC[C@]12C`, for which the -log(RatioIC50) is -0.653.

Take `CC(C)CC(=O)[C@H]1CC[C@H]2[C@@H]3CC[C@H]4N(C)C(=O)C=C[C@]4(C)[C@H]3CC[C@]12C`: the -log(RatioIC50) was -1.48.

Turning to `CC(C)N(C(=O)[C@H]1CC[C@H]2[C@@H]3CC[C@H]4N(C)C(=O)C=C[C@]4(C)[C@H]3CC[C@]12C)C(C)C`, the -log(RatioIC50) was -1.

For the molecule `C[C@]12C=CC(=O)N[C@@H]1CC[C@@H]1[C@@H]2CC[C@]2(C)[C@@H](O)CC[C@@H]12`, the -log(RatioIC50) is -2.

On to `CCN(CC)C(=O)/C=C/[C@H]1CC[C@H]2[C@@H]3CC[C@H]4N(C)C(=O)CC[C@]4(C)[C@H]3CC[C@]12C`, for which the -log(RatioIC50) is -0.301.

`C[C@]12C=CC(=O)N[C@@H]1CC[C@@H]1[C@@H]2CC[C@]2(C)[C@@H](C(N)=O)CC[C@@H]12`: the -log(RatioIC50) is -1.92.

As for `CN1C(=O)C=C[C@]2(C)[C@H]3CC[C@@]4(C)[C@@H](CC[C@@]45CCCO5)[C@@H]3CC[C@@H]12`, the -log(RatioIC50) was -3.1.

Take `CC(C)(C)NC(=O)[C@H]1CC[C@H]2[C@@H]3CC[C@H]4NC(=O)C=C[C@]4(C)[C@H]3CC[C@]12C`: the -log(RatioIC50) amounted to 0.26.

`COC(=O)[C@H]1CC[C@H]2[C@@H]3CC[C@H]4NC(=O)C=C[C@]4(C)[C@H]3CC[C@]12C`: the -log(RatioIC50) was -1.56.

In the case of `CN1C(=O)C=C[C@]2(C)[C@H]3CC[C@]4(C)[C@@H](C(=O)NC(C)(C)C)CC[C@H]4[C@@H]3CC[C@@H]12`, the -log(RatioIC50) is -0.778.

As for `CC(C)CC(=O)[C@H]1CC[C@H]2[C@@H]3CC[C@H]4NC(=O)C=C[C@]4(C)[C@H]3CC[C@]12C`, the -log(RatioIC50) is -0.255.

With `CN1C(=O)C=C[C@]2(C)[C@H]3CC[C@]4(C)[C@@H](C(=O)NC(C)(C)CC(C)(C)C)CC[C@H]4[C@@H]3CC[C@@H]12`, the -log(RatioIC50) is -0.477.
